# Assay results as given in patent US20050148838A1, “Pharmaceutical discovery and development” (priority 2002, published 2005).
# Test: Coulometric EC-MS (voltammetric mass spectrometry), Phase I type EC oxidation
# Type: physicochemical
# Conditions: per product ion
# From the text: Referring to FIG. 1A, a Model 1100 LC/MSD single quadrupole mass spectrometer 10 (Agilent Technologies, Palo Alto, Calif., USA) was used in combination with a Coulochem® III ECD 12 and Model 5021 coulometric cell 14 (ESA Inc., Chelmsford, Mass., USA).
# Compounds are characterized via automated sequences, in which EC potential is changed from, e.g., 0-1200 mV(vs. Pd) in increments of, e.g., 200 mV. EC current and MS ion abundance at specific mass-to-charge ratios (m/z) is monitored. In accordance with the present invention, EC (e.g., coulometric, or amperometric) and reaction product profiles for various drug candidates can be obtained reproducibly. Peak area for parent compounds is inversely proportional to EC response with concomitant formation of reaction products.
row,Compound,E½ (½ wave potential for product formation) [mV vs. Pd]
1,COc1c(O)ccc2c1CC[C@@H]1[C@@H]2CC[C@]2(C)[C@@H](O)CC[C@@H]12 [4-Methoxyestradiol],450
2,C[C@]12CC[C@@H]3c4cc(O)c(O)cc4CC[C@H]3[C@@H]1CC[C@@H]2O [2-Hydroxyestradiol],250
3,COc1cc2c(cc1O)CC[C@@H]1[C@@H]2CC[C@]2(C)[C@@H](O)CC[C@@H]12 [2-Methoxyestradiol],450
4,C[C@]12CC[C@@H]3c4ccc(O)c(O)c4CC[C@H]3[C@@H]1CC[C@@H]2O [4-Hydroxyestradiol],250
5,CN(C)CCCN1c2ccccc2CCc2ccccc21 [Imipramine],650

# Now from value to molecule:
row,E½ (½ wave potential for product formation) [mV vs. Pd],Compound
1,1000,CC(C)NCC(O)COc1cccc2ccccc12 (stereo not shown) [Propranolol]
2,1100,CSCC[C@H](N)C(=O)O [Methionine]
3,1000,CCCCN1C[C@H](O)[C@@H](O)[C@H](O)[C@H]1CO [N-butyldeoxynojirimycin]
4,1100,N[C@@H](CCS)C(=O)O [Homocysteine]

# Test: EC-MS oxidation with co-injected glutathione (Phase II type conjugation of EC-generated electrophiles)
# Conditions: not given
row,glutathionyl addition products formed on EC oxidation,Compound
1,mono-glutathionyl addition product,Cc1cc(C(C)(C)C)c(O)c(C(C)(C)C)c1 [BHT]
